# From patent US20260275249A1, “Bleach Catalyst With Improved Performance, Granule Comprising The Bleach Catalyst, And Composition Comprising Said Catalyst Or Said Granule” (Reckitt Benckiser Vanish B.V., priority 2023, published 2026)
# “Also recorded” adds a separate entry of the source.
# Tests used:
# [1] = Stability of bleach catalysts: UV-vis absorbance of solutions at pH 11; format: physicochemical
# Description: The stability of bleach catalysts having the structures shown in Table 2 was determined by preparing solutions of these compounds and measuring their UV-vis absorbance.
# A solution of each compound was prepared by dissolving each compound in a mixture of 50 wt. % water and 50 wt. % acetone. The concentration of each solution was 0.28 mM.
# The pH of each solution was set to 11 by adding a diluted solution of sodium hydroxide.
# The UV-vis absorption of each solution was measured just after preparing the samples (t=0), then at 2 h and 48 h using a UV-Vis Evolution 220 FC-1135 spectrophotometer.
# [2] = Amount of solvent system needed to dissolve 0.2 g of bleach catalyst (effect of surfactant on solubility); format: physicochemical
# Description: The amount of solvent needed to dilute 0.2 g of bleach catalyst 1 was determined. Subsequently solvent systems containing a solvent and 0.06 wt. % of surfactant, based on the total weight of the solvent system, were prepared, and the amount of solvent system needed to dilute 0.2 g of bleach catalyst 1 was determined. It will be recognised that for the preparation of a supported catalyst on a carrier it is necessary to dilute the bleach catalyst in a solvent system.
# The results of the amount of solvent system without surfactant and solvent system with surfactant needed to dissolve 0.2 g of bleach catalyst 1 are shown in Table 5.
# [3] = t = 0, 0.28 mM in 50 wt. % water / 50 wt. % acetone
# [4] = t = 48 h, 0.28 mM in 50 wt. % water / 50 wt. % acetone
Compound,"Absorption at 445 nm [1, 3]","Appearance [1, 3]","Absorption at 445 nm [1, 4]","Appearance [1, 4]",Amount of solvent system needed to dissolve 0.2 g of bleach catalyst ([2]; Acetone) [g],Amount of solvent system needed to dissolve 0.2 g of bleach catalyst ([2]; Acetone with 0.06 wt. % surfactant (ROKAnol L7A)) [g],Amount of solvent system needed to dissolve 0.2 g of bleach catalyst ([2]; Ethyl acetate) [g],Amount of solvent system needed to dissolve 0.2 g of bleach catalyst ([2]; Ethyl acetate with 0.06 wt. % surfactant (ROKAnol L7A)) [g],Amount of solvent system needed to dissolve 0.2 g of bleach catalyst ([2]; Tetrahydrofuran) [g],Amount of solvent system needed to dissolve 0.2 g of bleach catalyst ([2]; Tetrahydrofuran with 0.06 wt. % surfactant (ROKAnol L7A)) [g]
"O=S1(=O)N=C(c2ccccn2)c2ccccc21 [Bleach catalyst 1, 3-(33yridine-2-yl)-1,2-benzisothiazole-1,1-dioxide]",<0.05,Transparent,<0.05,Transparent,5,2.5,13,11,3.5,2.75
"O=S1(=O)N=C(c2cccnc2)c2ccccc21 [Bleach catalyst 2, 3-(pyridine-3-yl)-1,2-benzisothiazole-1,1-dioxide]",<0.05,Transparent,<0.05,Transparent,,,,,,
"CC1=NS(=O)(=O)c2ccccc21 [Bleach catalyst A, 3-methyl-1,2-benzisothiazole-1,1-dioxide]",<0.05,Transparent,0.37,coloured/yellow; also recorded: Yellowing,,,,,,

# Continued, values first:
"Absorption at 445 nm [1, 3]","Appearance [1, 3]","Absorption at 445 nm [1, 4]","Appearance [1, 4]",Amount of solvent system needed to dissolve 0.2 g of bleach catalyst ([2]; Acetone) [g],Amount of solvent system needed to dissolve 0.2 g of bleach catalyst ([2]; Acetone with 0.06 wt. % surfactant (ROKAnol L7A)) [g],Amount of solvent system needed to dissolve 0.2 g of bleach catalyst ([2]; Ethyl acetate) [g],Amount of solvent system needed to dissolve 0.2 g of bleach catalyst ([2]; Ethyl acetate with 0.06 wt. % surfactant (ROKAnol L7A)) [g],Amount of solvent system needed to dissolve 0.2 g of bleach catalyst ([2]; Tetrahydrofuran) [g],Amount of solvent system needed to dissolve 0.2 g of bleach catalyst ([2]; Tetrahydrofuran with 0.06 wt. % surfactant (ROKAnol L7A)) [g],Compound
<0.05,Transparent,<0.05,Transparent,,,,,,,"O=S1(=O)N=C(c2ccccc2)c2ccccc21 [Bleach catalyst B, 3-phenyl-1,2-benzisothiazole-1,1-dioxide]"
<0.05,Transparent,<0.05,Transparent,,,,,,,"CC(C)(C)C1=NS(=O)(=O)c2ccccc21 [Bleach catalyst C, 3-tert-butyl-1,2-benzisothiazole-1,1-dioxide]"
